#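 Five concentrations, 48 hours, 96-well plates. The concentration for full growth arrest is given as TGI.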 Where a SMILES comes first, the peptide text is derived from it. Bridges are numbered along the chain shown (N, C = ends). The star is where a group is joined. Cbz = O=C(OCc1ccccc1)*
# How the values were obtained:
# Test in all cases: DTP human tumour cell line panel, 48 h
# [1] = test system: SNB-75 CNS
# [2] = test system: HCT-15 colon
# [3] = test system: KM12 colon
# [4] = test system: IGROV1 ovarian
# [5] = test system: SR leukemia
# [6] = test system: SF-539 CNS
# [7] = test system: SNB-19 CNS
# [8] = test system: PC-3 prostate
# [9] = test system: BT-549 breast
# [10] = test system: MDA-MB-435
SMILES,TGI [1] [µM],TGI [2] [µM],TGI [3] [µM],TGI [4] [µM],TGI [5] [µM],TGI [6] [µM],TGI [7] [µM],TGI [8] [µM],TGI [9] [µM],TGI [10] [µM]
C/C(=C\Cc1cc(O)ccc1O)CCc1c(C)c(O)c(O)c(C=O)c1C,> 100,> 100,44.3,41.3,51,42.1,> 100,,,
C[C@@H]1CC[C@@H](C)[C@](C)(CCc2ccoc2)C/C=C\C=C/1C(=O)O,> 50,> 50,> 50,> 50,> 50,> 50,> 50,> 50,> 50,
CC1C2CC(C/C2=N/O)C1(C)C (stereo not drawn),> 100,,> 100,> 100,> 100,> 100,> 100,> 100,> 100,> 100
Cc1cc(C)c2c(=N)c3ccccc3n(CCCCCCO)c2n1,5.78,9.69,13.5,10.9,,9.48,18.9,11.9,23.7,16.7
O=C1CCC2(O)C3Cc4ccc(Oc5nnnn5-c5ccccc5)c5c4C2(CCN3CC2CC2)C1O5 (stereo not drawn),> 100,> 100,> 100,> 100,42.9,,> 100,> 100,> 100,37
C/C=C/[C@H]1O[C@@](O)([C@@H](C)[C@H](O)[C@H](C)[C@H]2OC(=O)/C(OC)=C/C(C)=C/[C@@H](C)[C@@H](O)[C@@H](CC)[C@@H](O)[C@H](C)C/C(C)=C/C=C/[C@@H]2OC)C[C@H](OC2CC(O)C(OC(N)=O)C(C)O2)[C@@H]1C (stereo partly drawn),21.9,12.6,17.4,20.9,,,23.7,15.1,19.7,14.8
CCNc1ncnc2c1nnn2CC,> 100,> 100,> 100,> 100,,> 100,> 100,> 100,,> 100
CCCCCn1c(=O)c2c(=O)[nH][nH]c2c2ccccc21,> 100,> 100,> 100,> 100,> 100,> 100,,> 100,> 100,> 100
C=C(Br)CNCC(=C)Br,> 100,> 100,> 100,> 100,> 100,> 100,> 100,> 100,,> 100
CCOC(=O)c1c(N2CCOCC2)[nH]c(=O)c(C(c2cccs2)c2c(O)c(C(=O)OCC)c(N3CCOCC3)[nH]c2=O)c1O,> 100,> 100,> 100,,> 100,> 100,> 100,> 100,> 100,> 100
Oc1nc(N/N=C/c2ccccc2)[nH]c1/C=C1\C=Nc2ccccc21,> 100,> 100,> 100,> 100,,> 100,> 100,> 100,> 100,> 100
CC(=O)c1ccc(N2CCN(C3=CC(=O)c4c(O)ccc(O)c4C3=O)CC2)cc1,61.7,55.6,> 100,> 100,> 100,> 100,> 100,> 100,,
COC(=O)C1CCCCNC(=O)CCC(NC(=O)OCc2ccccc2)C(=O)N1 (stereo not drawn) (Cbz-Glu-Lys-OMe; lactam 1-2; configuration not given here),> 100,> 100,> 100,> 100,> 100,> 100,> 100,> 100,,> 100
O/N=C1/C2CC3CC1(c1ccccc1)CC(/C3=N/O)/C2=N\O (stereo not drawn),> 100,> 100,> 100,,> 100,> 100,> 100,> 100,> 100,> 100
O/N=C1\CCc2nonc2\C1=N/Nc1ccccc1,> 100,> 100,> 100,> 100,> 100,> 100,> 100,> 100,,> 100
COc1cc2c(cc1C)NC(=O)/C2=C\c1ccncc1,33.7,16,12.5,6.94,8.04,8.45,21.6,> 100,,20
CC(C)=Nn1cnc(C(=N)C#N)c1N,> 100,> 100,,> 100,> 100,> 100,> 100,> 100,> 100,
CC1=NN(C(=O)c2ccc(Cl)cc2)C(=O)/C1=C/c1ccc(Cl)cc1,,,> 100,> 100,,> 100,> 100,,,
Cc1ccc(SC[C@@]2(C(F)F)NC(=O)NC2=O)cc1,> 100,> 100,> 100,> 100,> 100,,> 100,> 100,> 100,> 100
CCC(=O)NC(OCC1(CC)COC1)(C(F)(F)F)C(F)(F)F,> 100,> 100,> 100,,> 100,> 100,> 100,,> 100,> 100
COP(=O)(OC)C(NC=O)P(=O)(OC)OC,,> 100,,> 100,> 100,> 100,> 100,> 100,> 100,> 100
O=C1c2ccccc2-c2nc(-c3ccccc3)cc3c2c1nc1ccccc13,,28.5,50.3,23,11.9,,52.9,32.3,42.9,3.51
Cc1ccc(N=C2SC(c3ccc(C)cc3)(c3ccc(C)cc3)c3ccccc32)cc1,> 100,> 100,> 100,> 100,,> 100,> 100,> 100,> 100,> 100

# Source: PubChem BioAssay (NCI)
